Biological target: Sigma non-opioid intracellular receptor 1 (Cavia porcellus) (UniProt Q60492)
Experiment: Binding affinity for sigma 1 opioid receptor, measured on guinea pig brain membranes using [3H]- (+)-pentazocine as radioligand

Sigma non-opioid intracellular receptor 1 (Cavia porcellus), sequence (Q60492 whole entry, looked up): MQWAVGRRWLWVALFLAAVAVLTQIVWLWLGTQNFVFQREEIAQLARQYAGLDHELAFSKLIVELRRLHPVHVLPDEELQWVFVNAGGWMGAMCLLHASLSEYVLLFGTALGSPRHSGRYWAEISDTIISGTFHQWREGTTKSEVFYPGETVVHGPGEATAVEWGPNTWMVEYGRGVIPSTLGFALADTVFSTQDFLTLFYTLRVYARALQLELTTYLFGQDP

Ki [µM] | Structure (SMILES)
0.0227 | O=C(Nc1cccc2ccccc12)NC1CCN(Cc2ccccc2)CC1 [1-(1-Benzyl-piperidin-4-yl)-3-naphthalen-1-yl-urea]
0.0154 | O=C(Cc1ccccc1F)NC1CCN(Cc2cccc(I)c2)CC1 [2-(2-Fluoro-phenyl)-N-[1-(3-iodo-benzyl)-piperidin-4-yl]-acetamide]
0.0042 | O=C(Cc1ccccc1F)NC1CCN(Cc2ccc(I)cc2)CC1 [2-(2-Fluoro-phenyl)-N-[1-(4-iodo-benzyl)-piperidin-4-yl]-acetamide]
0.00349 | O=C(Cc1cccc(Br)c1)NC1CCN(Cc2cccc(I)c2)CC1 [2-(3-Bromo-phenyl)-N-[1-(3-iodo-benzyl)-piperidin-4-yl]-acetamide]
0.00121 | O=C(Cc1cccc(Br)c1)NC1CCN(Cc2ccc(F)cc2)CC1 [2-(3-Bromo-phenyl)-N-[1-(4-fluoro-benzyl)-piperidin-4-yl]-acetamide]
0.00178 | O=C(Cc1cccc(Br)c1)NC1CCN(Cc2ccc(I)cc2)CC1 [2-(3-Bromo-phenyl)-N-[1-(4-iodo-benzyl)-piperidin-4-yl]-acetamide]
0.00231 | O=C(Cc1cccc(Cl)c1)NC1CCN(Cc2cccc(I)c2)CC1 [2-(3-Chloro-phenyl)-N-[1-(3-iodo-benzyl)-piperidin-4-yl]-acetamide]
0.00115 | O=C(Cc1cccc(Cl)c1)NC1CCN(Cc2ccc(F)cc2)CC1 [2-(3-Chloro-phenyl)-N-[1-(4-fluoro-benzyl)-piperidin-4-yl]-acetamide]
0.00321 | O=C(Cc1cccc(Cl)c1)NC1CCN(Cc2ccc(I)cc2)CC1 [2-(3-Chloro-phenyl)-N-[1-(4-iodo-benzyl)-piperidin-4-yl]-acetamide]
0.00429 | O=C(Cc1cccc(F)c1)NC1CCN(Cc2cccc(I)c2)CC1 [2-(3-Fluoro-phenyl)-N-[1-(3-iodo-benzyl)-piperidin-4-yl]-acetamide]
0.00225 | O=C(Cc1cccc(F)c1)NC1CCN(Cc2ccc(I)cc2)CC1 [2-(3-Fluoro-phenyl)-N-[1-(4-iodo-benzyl)-piperidin-4-yl]-acetamide]
> 1 | O=C(Cc1ccccc1)NC1CCN(Cc2ccccc2C(F)(F)F)CC1 [2-Phenyl-N-[1-(2-trifluoromethyl-benzyl)-piperidin-4-yl]-acetamide]
0.141 | O=C(Cc1ccccc1)NC1CCN(Cc2cccc(C(F)(F)F)c2)CC1 [2-Phenyl-N-[1-(3-trifluoromethyl-benzyl)-piperidin-4-yl]-acetamide]
0.0871 | O=C(Cc1ccccc1)NC1CCN(Cc2ccc(C(F)(F)F)cc2)CC1 [2-Phenyl-N-[1-(4-trifluoromethyl-benzyl)-piperidin-4-yl]-acetamide]
0.248 | O=C(Cc1cnc[nH]1)NC1CCN(Cc2ccccc2)CC1 [N-(1-Benzyl-piperidin-4-yl)-2-(1H-imidazol-4-yl)-acetamide]
0.0109 | O=C(Cc1c[nH]c2ccccc12)NC1CCN(Cc2ccccc2)CC1 [N-(1-Benzyl-piperidin-4-yl)-2-(1H-indol-3-yl)-acetamide]
0.0138 | O=C(Cc1ccc(I)cc1)NC1CCN(Cc2ccccc2)CC1 [N-(1-Benzyl-piperidin-4-yl)-2-(4-iodo-phenyl)-acetamide]
0.0519 | O=C(Cc1c[nH]c2ccc(Br)cc12)NC1CCN(Cc2ccccc2)CC1 [N-(1-Benzyl-piperidin-4-yl)-2-(5-bromo-1H-indol-3-yl)-acetamide]
0.125 | COc1ccc2[nH]cc(CC(=O)NC3CCN(Cc4ccccc4)CC3)c2c1 [N-(1-Benzyl-piperidin-4-yl)-2-(5-methoxy-1H-indol-3-yl)-acetamide]
0.299 | COc1ccc2c(c1)C(CC(=O)NC1CCN(Cc3ccccc3)CC1)CC2=O (configuration not stated) [N-(1-Benzyl-piperidin-4-yl)-2-(6-methoxy-3-oxo-indan-1-yl)-acetamide]
> 1 | O=C1C=CC2C(CC(=O)NC3CCN(Cc4ccccc4)CC3)=CC(=O)OC2C1 (configuration not stated) [N-(1-Benzyl-piperidin-4-yl)-2-(7-hydroxy-2-oxo-4a,8a-dihydro-2H-chromen-4-yl)-acetamide]

Ki [µM] | Structure (SMILES)
0.15 | O=C(CSc1ncccn1)NC1CCN(Cc2ccccc2)CC1 [N-(1-Benzyl-piperidin-4-yl)-2-(pyrimidin-2-ylsulfanyl)-acetamide]
0.00464 | O=C(Cc1cccc2ccccc12)NC1CCN(Cc2ccccc2)CC1 [N-(1-Benzyl-piperidin-4-yl)-2-naphthalen-1-yl-acetamide]
0.0618 | O=C(Cc1ccc2ccccc2c1)NC1CCN(Cc2ccccc2)CC1 [N-(1-Benzyl-piperidin-4-yl)-2-naphthalen-2-yl-acetamide]
0.236 | O=C(Cc1ccccn1)NC1CCN(Cc2ccccc2)CC1 [N-(1-Benzyl-piperidin-4-yl)-2-pyridin-2-yl-acetamide]
0.269 | O=C(Cc1cccnc1)NC1CCN(Cc2ccccc2)CC1 [N-(1-Benzyl-piperidin-4-yl)-2-pyridin-3-yl-acetamide]
0.298 | O=C(Cc1ccncc1)NC1CCN(Cc2ccccc2)CC1 [N-(1-Benzyl-piperidin-4-yl)-2-pyridin-4-yl-acetamide]
0.00393 | O=C(Cc1cccs1)NC1CCN(Cc2ccccc2)CC1 [N-(1-Benzyl-piperidin-4-yl)-2-thiophen-2-yl-acetamide]
0.0072 | O=C(Cc1ccsc1)NC1CCN(Cc2ccccc2)CC1 [N-(1-Benzyl-piperidin-4-yl)-2-thiophen-3-yl-acetamide]
0.0239 | O=C(Cc1ccccc1)NC1CCN(Cc2ccc3ccccc3c2)CC1 [N-(1-Naphthalen-2-ylmethyl-piperidin-4-yl)-2-phenyl-acetamide]
0.0102 | O=C(Cc1ccccc1)NC1CCN(Cc2ccccc2F)CC1 [N-[1-(2-Fluoro-benzyl)-piperidin-4-yl]-2-phenyl-acetamide]
0.347 | O=C(Cc1ccccc1)NC1CCN(Cc2ccccc2I)CC1 [N-[1-(2-Iodo-benzyl)-piperidin-4-yl]-2-phenyl-acetamide]
0.00724 | O=C(Cc1ccccc1)NC1CCN(Cc2ccc(Cl)c(Cl)c2)CC1 [N-[1-(3,4-Dichloro-benzyl)-piperidin-4-yl]-2-phenyl-acetamide]
0.0063 | O=C(Cc1ccccc1)NC1CCN(Cc2ccc(F)c(F)c2)CC1 [N-[1-(3,4-Difluoro-benzyl)-piperidin-4-yl]-2-phenyl-acetamide]
0.00822 | O=C(Cc1ccccc1)NC1CCN(Cc2cccc(F)c2)CC1 [N-[1-(3-Fluoro-benzyl)-piperidin-4-yl]-2-phenyl-acetamide]
0.00675 | O=C(Cc1ccccc1)NC1CCN(Cc2cccc(I)c2)CC1 [N-[1-(3-Iodo-benzyl)-piperidin-4-yl]-2-phenyl-acetamide]
0.00315 | O=C(Cc1ccccc1F)NC1CCN(Cc2ccc(F)cc2)CC1 [N-[1-(4-Fluoro-benzyl)-piperidin-4-yl]-2-(2-fluoro-phenyl)-acetamide]
0.00551 | O=C(Cc1cccc(F)c1)NC1CCN(Cc2ccc(F)cc2)CC1 [N-[1-(4-Fluoro-benzyl)-piperidin-4-yl]-2-(3-fluoro-phenyl)-acetamide]
0.00659 | O=C(Cc1ccccc1)NC1CCN(Cc2ccc(F)cc2)CC1 [N-[1-(4-Fluoro-benzyl)-piperidin-4-yl]-2-phenyl-acetamide]
0.00903 | O=C(Cc1ccccc1)NC1CCN(Cc2ccc(I)cc2)CC1 [N-[1-(4-Iodo-benzyl)-piperidin-4-yl]-2-phenyl-acetamide]
0.0191 | O=C(Cc1ccccc1)NC1CCN(Cc2ccc([N+](=O)[O-])cc2)CC1 [N-[1-(4-Nitro-benzyl)-piperidin-4-yl]-2-phenyl-acetamide]

Structure (SMILES) | Ki [µM]
O=C(Cc1ccccc1)NC1CCN(CCc2ccccc2)CC1 [N-(1-Phenethyl-piperidin-4-yl)-2-phenyl-acetamide] | 0.0312

— BindingDB's records for doi:10.1021/jm010384j (Wake Forest University School of Medicine, 2001)
